Measurements published in patent US20230357722A1, “METHODS FOR IDENTIFYING MODULATORS OF NATURAL KILLER CELL INTERACTIONS” (The Johns Hopkins University, priority 2020, published 2023).

Legend:
Format in all cases: cell-based, mouse
[1] = tested on: tumor-exposed NK cell-MMTV-PyMT tumor cluster co-culture; assay: teNK cell-MMTV-PyMT tumor cluster co-culture colony formation assay; conditions: teNK cells pretreated with DNMT inhibitor at 1 μM for 24 hours before co-culture; FIG. 5C
Text: The capacity of candidate immunotherapies to reverse the effect of teNK cells on colony formation was investigated. Anti-PD-1 therapy has been reported to restore the function of anergic NK cells (Hsu J, et al. J Clin Invest. 2018; 128(10):4654-68). […] Targeted receptors were next identified in the RNA expression analysis, specifically TIGIT and KLRG1. TIGIT is an emerging immune checkpoint on NK cells and T cells and anti-TIGIT therapies are in clinical trials (Zhang Q, et al. Blockade of the checkpoint receptor TIGIT prevents NK cell exhaustion and elicits potent anti-tumor immunity. Nat Immunol. 2018; 19(7):723-32). KLRG1, a marker of senescent NK cells and T cells and a recently reported inhibitor of NK cell function (Muller-Durovic B, et al. J Immunol. 2016; 197(7):2891-9), was highly expressed by teNK cells. […] The broad gene expression differences between hNK and teNK cells provided the motivation to identify epigenetic regulators of NK cell state. […] Experiments were then carried out seeking to validate the functional significance of these findings in the co-culture models. […] It was assessed whether the combination of FDA approved DNA methyltransferase inhibitors and anti-TIGIT or anti-KLRG1 would prevent colonies from being formed in co-culture. […]

TIGIT = assay: RT-qPCR of TIGIT in teNK cells treated with DNMT inhibitors; conditions: teNK cells pretreated with DNMT inhibitor; FIG. 10F
Text: (§1) Natural killer cell isolation. Primary splenocytes were isolated by mechanical dissociation from spleens of wild-type FVB/n, MMTV-PyMT, or C3(1)-Tag mice, or from the tumors of MMTV-PyMT mice. NK cells isolated from WT FVB/n mice are defined as healthy NK (hNK) cells and those isolated from tumor bearing mice are defined as tumor-exposed NK (teNK) cells. NK cells isolated from MMTV-PyMT tumors are defined as tumor-infiltrating NK cells. The NK cells were purified from isolated splenocytes using EasySep Mouse NK Cell Isolation Kit per the manufacturer's protocol (#19855; Stemcell Technologies). The isolated cells were then positively selected by FACS by gating on CD49b+/CD3− cells and CD45+/CD49b+/CD3− for NK cells isolated from tumors. NK cells were cultured in media at 37° C. containing 200 U/ml recombinant mouse IL-2 (#402-ML-100, R&D Systems), 5 ng/ml recombinant mouse IL-15 (#447-ML-010, R&D Systems) or 5 ng/ml recombinant mouse IL-I5:IL-15R complex (#14-8152-62, Thermo Fisher) for 16 h before use in assays. […]
(§2) RNA Extraction and Quantitative PCR. […] Quantitative PCR was conducted using the SsoAdvanced Universal SYBR Green Supermix (BioRad #1725271) with 500 pg cDNA and 500 nM primers per reaction. […] Target gene expression values were normalized to GAPDH expression and fold change was calculated as 2-ΔΔCt. […]

KLRG1 = assay: RT-qPCR of KLRG1 in teNK cells treated with DNMT inhibitors; conditions: teNK cells pretreated with DNMT inhibitor; FIG. 10F
Text: as §1, §2

Nc1ncn([C@@H]2O[C@H](CO)[C@@H](O)[C@H]2O)c(=O)n1 [azacitidine]
colony formation (normalized colony count) [1]: neutralized the effect of teNK cells in co-culture | gene expression of TIGIT by qPCR (TIGIT): reduced gene expression of TIGIT | gene expression of KLRG1 by qPCR (KLRG1): reduced gene expression of TIGIT and KLRG1
